Where “and” joins values, the source holds several entries; their conditions need not be identical. Equal entries are not always repeated. Inconclusive results and toxic doses are left out. How the source made its calls: active means survival T/C of 150% or more; inactive means T/C below 125% in these data.
Test system: BDF1 mice, P388 leukemia ip, median survival T/C
Assay: NCI In Vivo Anticancer Drug Screen. Data for tumor model P388 Leukemia (intraperitoneal) in B6D2F1 (BDF1) mice
Conditions: endpoint: median survival time, higher = longer survival
In short: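 Survival ratio, drug arm over vehicle arm, in mice with a transplanted tumour.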

[1] = dose: 50.0 mg/kg/injection, schedule: Q01DX009 (ip), vehicle: Klucel (hydroxypropylcellulose) (HPC)
[2] = dose: 100.0 mg/kg/injection, schedule: Q01DX009 (ip), vehicle: Klucel (hydroxypropylcellulose) (HPC)
[3] = dose: 200.0 mg/kg/injection, schedule: Q01DX009 (ip), vehicle: Klucel (hydroxypropylcellulose) (HPC)
[4] = dose: 50.0 mg/kg/injection, schedule: Q01DX009 (ip), vehicle: saline
[5] = dose: 100.0 mg/kg/injection, schedule: Q01DX009 (ip), vehicle: saline
[6] = dose: 200.0 mg/kg/injection, schedule: Q01DX009 (ip), vehicle: saline
[7] = dose: 100.0 mg/kg/injection, schedule: Q01DX009 (ip), vehicle: saline with Tween-80
[8] = dose: 200.0 mg/kg/injection, schedule: Q01DX009 (ip), vehicle: saline with Tween-80
[9] = dose: 50.0 mg/kg/injection, schedule: Q04DX003 (ip), vehicle: saline
[10] = dose: 25.0 mg/kg/injection, schedule: Q04DX003 (ip), vehicle: saline with Tween-80
[11] = dose: 100.0 mg/kg/injection, schedule: Q04DX003 (ip), vehicle: saline with Tween-80
[12] = dose: 25.0 mg/kg/injection, schedule: Q01DX009 (ip), vehicle: Klucel (hydroxypropylcellulose) (HPC)
[13] = dose: 50.0 mg/kg/injection, schedule: Q04DX003 (ip), vehicle: saline with Tween-80
[14] = dose: 100.0 mg/kg/injection, schedule: Q04DX003 (ip), vehicle: Klucel (hydroxypropylcellulose) (HPC)
[15] = dose: 50.0 mg/kg/injection, schedule: Q01DX009 (ip), vehicle: saline with Tween-80
[16] = dose: 6.25 mg/kg/injection, schedule: Q01DX009 (ip), vehicle: Klucel (hydroxypropylcellulose) (HPC)
[17] = dose: 12.5 mg/kg/injection, schedule: Q01DX009 (ip), vehicle: Klucel (hydroxypropylcellulose) (HPC)
[18] = dose: 400.0 mg/kg/injection, schedule: Q01DX009 (ip), vehicle: Klucel (hydroxypropylcellulose) (HPC)
[19] = dose: 100.0 mg/kg/injection, schedule: Q04DX003 (ip), vehicle: saline
[20] = dose: 200.0 mg/kg/injection, schedule: Q04DX003 (ip), vehicle: Klucel (hydroxypropylcellulose) (HPC)
[21] = dose: 200.0 mg/kg/injection, schedule: Q04DX003 (ip), vehicle: saline with Tween-80

Measured: T/C

C=CC(C)(C)C12CC3C(=O)N/C(=C\c4cnc[nH]4)C(=O)N3C1Nc1ccccc12 (configuration not stated)
inactive: [1] 94 % of control | [2] 94 % of control | [3] 92 % of control

C=CC1CN2CCC1CC2C(O)c1ccnc2ccc(OC)cc12 (configuration not stated)
inactive: [4] 120 % of control | [5] 95 % of control | [6] 100 % of control

c1ccc(-c2cc(-c3ccccc3)on2)cc1
inactive: [7] 95 % of control | [8] 109 % of control | dose: 400.0 mg/kg/injection, schedule: Q01DX009 (ip), vehicle: saline with Tween-80 104 % of control

FC(F)(F)c1ccc2c(c1)N(CCCN1CCN(CCN3CCOCC3)CC1)c1ccccc1S2
inactive: dose: 12.5 mg/kg/injection, schedule: Q04DX003 (ip), vehicle: saline 99 % of control and 100 % of control | dose: 25.0 mg/kg/injection, schedule: Q04DX003 (ip), vehicle: saline 86 % of control and 99 % of control | [9] 104 % of control and 112 % of control

O=C(CCCc1ccc(N(CCCl)CCCl)cc1)Nc1ccccc1
active: [11] 210 % of control
inactive: dose: 25.0 mg/kg/injection, schedule: Q01DX009 (ip), vehicle: saline sonified 109 % of control | [10] 120 % of control | dose: 50.0 mg/kg/injection, schedule: Q01DX009 (ip), vehicle: saline sonified 100 % of control | dose: 100.0 mg/kg/injection, schedule: Q01DX009 (ip), vehicle: saline sonified 113 % of control

CCOC(CN=Cc1ccc(Cl)c(Cl)c1)OCC
inactive: dose: 100.0 mg/kg/injection, schedule: Q01DX001 (ip), vehicle: Klucel (hydroxypropylcellulose) (HPC) 100 % of control | dose: 200.0 mg/kg/injection, schedule: Q01DX001 (ip), vehicle: Klucel (hydroxypropylcellulose) (HPC) 100 % of control | dose: 400.0 mg/kg/injection, schedule: Q01DX001 (ip), vehicle: Klucel (hydroxypropylcellulose) (HPC) 95 % of control

O=S(=O)(Oc1ccccc1)C(F)(F)C(F)(F)C(F)(F)C(F)(F)F
inactive: [4] 109 % of control | [5] 106 % of control | [6] 109 % of control

O=[N+]([O-])c1ccc([N+](=O)[O-])c(Cl)c1
inactive: dose: 12.5 mg/kg/injection, schedule: Q04DX003 (ip), vehicle: saline with Tween-80 90 % of control | [12] 100 % of control | [10] 109 % of control | [1] 109 % of control | [13] 109 % of control | [2] 118 % of control | [14] 109 % of control | dose: 150.0 mg/kg/injection, schedule: Q01DX009 (ip), vehicle: Klucel (hydroxypropylcellulose) (HPC) 118 % of control

COCC(O)CN1CCN(c2ccccc2C)CC1 (configuration not stated)
inactive: dose: 25.0 mg/kg/injection, schedule: Q01DX009 (ip), vehicle: saline with Tween-80 87 % of control | [15] 95 % of control | [7] 91 % of control

CCOC(=O)CC(C)=O.[Cu+2]
inactive: [16] 100 % of control | [17] 90 % of control

O=C(O)C1CCCC2C(O)CCC(=O)C12 (configuration not stated)
inactive: [7] 100 % of control | [8] 109 % of control

O=C(NC(Cl)=C(Cl)Cl)P(=O)(c1ccccc1)c1ccccc1
inactive: dose: 50.0 mg/kg/injection, schedule: Q01DX005 (ip), vehicle: saline with Tween-80 92 % of control | dose: 100.0 mg/kg/injection, schedule: Q01DX005 (ip), vehicle: saline with Tween-80 111 % of control | dose: 200.0 mg/kg/injection, schedule: Q01DX005 (ip), vehicle: saline with Tween-80 95 % of control

C1CC[N-]CC1.C1CC[N-]CC1.[Cl][Pt+2]([Cl])([Cl])[Cl]
inactive: [7] 95 % of control | [8] 90 % of control

C=CCn1c2ccccc2c2cc3cnccc3c(C)c21
inactive: dose: 50.0 mg/kg/injection, schedule: Q04DX003 (ip), vehicle: saline sonified 95 % of control | dose: 100.0 mg/kg/injection, schedule: Q04DX003 (ip), vehicle: saline sonified 90 % of control | dose: 200.0 mg/kg/injection, schedule: Q04DX003 (ip), vehicle: saline sonified 95 % of control

OC(CBr)C(O)C(O)C(O)CBr (configuration not stated)
active: dose: 1000.0 mg/kg/injection, schedule: Q01DX001 (ip), vehicle: carboxymethylcellulose (CMC) 170 % of control
inactive: [1] 105 % of control | dose: 62.5 mg/kg/injection, schedule: Q01DX010 (ip), vehicle: saline 104 % of control | dose: 125.0 mg/kg/injection, schedule: Q01DX001 (ip), vehicle: carboxymethylcellulose (CMC) 120 % of control | dose: 125.0 mg/kg/injection, schedule: Q01DX010 (ip), vehicle: carboxymethylcellulose (CMC) 105 % of control | dose: 125.0 mg/kg/injection, schedule: Q01DX010 (ip), vehicle: saline 108 % of control | dose: 250.0 mg/kg/injection, schedule: Q01DX010 (ip), vehicle: carboxymethylcellulose (CMC) 110 % of control | dose: 250.0 mg/kg/injection, schedule: Q01DX010 (ip), vehicle: saline 91 % of control | [18] 87 % of control

NOCc1ccc(CON)cc1
inactive: [9] 87 % of control | [19] 91 % of control | dose: 200.0 mg/kg/injection, schedule: Q04DX003 (ip), vehicle: saline 95 % of control

S=c1[nH]nc(-c2ccncc2)n1C1CCCCC1
inactive: dose: 50.0 mg/kg/injection, schedule: Q04DX002 (ip), vehicle: saline with Tween-80 96 % of control | dose: 100.0 mg/kg/injection, schedule: Q04DX002 (ip), vehicle: saline with Tween-80 92 % of control | dose: 200.0 mg/kg/injection, schedule: Q04DX002 (ip), vehicle: saline with Tween-80 97 % of control

C[C@]12CCC(=O)C=C1CC[C@@H]1C2=CC[C@@]2(C)[C@H]1CC[C@]2(C)O
inactive: dose: 0.78 mg/kg/injection, schedule: Q01DX009 (ip), vehicle: Klucel (hydroxypropylcellulose) (HPC) 100 % of control | dose: 1.56 mg/kg/injection, schedule: Q01DX009 (ip), vehicle: Klucel (hydroxypropylcellulose) (HPC) 90 % of control | dose: 3.12 mg/kg/injection, schedule: Q01DX009 (ip), vehicle: Klucel (hydroxypropylcellulose) (HPC) 86 % of control | [1] 87 % of control | [14] 109 % of control | [3] 87 % of control | [20] 104 % of control

CC1CCC2(CC1)NC(=O)N(CNc1ccccc1)C2=O (configuration not stated)
inactive: [13] 100 % of control | [11] 87 % of control | [21] 100 % of control

O=C1/C(=C/c2ccccc2O)SC(=S)N1CCCN1CCOCC1
inactive: [15] 95 % of control | [7] 100 % of control | [8] 90 % of control

O.[Cu].[Cu]
inactive: [16] 90 % of control | dose: 6.25 mg/kg/injection, schedule: Q04DX003 (ip), vehicle: Klucel (hydroxypropylcellulose) (HPC) 90 % of control | [17] 110 % of control | dose: 12.5 mg/kg/injection, schedule: Q04DX003 (ip), vehicle: Klucel (hydroxypropylcellulose) (HPC) 90 % of control | [12] 95 % of control | dose: 25.0 mg/kg/injection, schedule: Q04DX003 (ip), vehicle: Klucel (hydroxypropylcellulose) (HPC) 118 % of control

Nc1ccn(CC(=O)c2ccco2)c(=O)n1
inactive: dose: 6.25 mg/kg/injection, schedule: Q01DX009 (ip), vehicle: saline 109 % of control | dose: 12.5 mg/kg/injection, schedule: Q01DX009 (ip), vehicle: saline 95 % of control | dose: 25.0 mg/kg/injection, schedule: Q01DX009 (ip), vehicle: saline 95 % of control and 109 % of control | [4] 86 % of control | [9] 105 % of control | [19] 105 % of control

CCCCNC(C)(C)C(SS)c1cccs1 (configuration not stated)
inactive: dose: 100.0 mg/kg/injection, schedule: Q04DX003 (ip), vehicle: other 100 % of control | dose: 200.0 mg/kg/injection, schedule: Q04DX003 (ip), vehicle: other 100 % of control

O=C(COc1ccc(Cl)cc1Cl)Nc1ccc(F)cc1
inactive: [11] 95 % of control | [21] 100 % of control | dose: 400.0 mg/kg/injection, schedule: Q04DX003 (ip), vehicle: saline with Tween-80 90 % of control

O/N=C\CCC/C=N/O
inactive: dose: 50.0 mg/kg/injection, schedule: Q04DX003 (ip), vehicle: Klucel (hydroxypropylcellulose) (HPC) 100 % of control | [2] 91 % of control | [14] 100 % of control | [3] 95 % of control | [20] 100 % of control | [18] 95 % of control
